Calls of active or inactive are those of the source. The calls are words filed in the database; no cut-off is given here.

Results on 4 molecules are retold here after ChEMBL document CHEMBL3880442, “NHE3-binding compounds and methods for inhibiting phosphate transport” (2014).

For series [1], the species on record is Rattus norvegicus. Description: Reduction in stomach phosphorus content in Sprague-Dawley rat model of uremia-associated vascular calcification measured after 27 days in presence of calcitriol. Type of series: functional.
The species named for series [2] is Rattus norvegicus. The series can be described thus: Reduction in creatinine clearance in Sprague-Dawley rat model of uremia-associated vascular calcification measured after 27 days in presence of calcitriol. The format is functional.
Series [3] is filed under the species Rattus norvegicus. Description: Reduction in aortic phosphorus content in Sprague-Dawley rat model of uremia-associated vascular calcification measured after 27 days in presence of calcitriol. Type of series: functional.
The test system of series [4] is Rattus norvegicus. The series can be described thus: Reduction in urinary calcium mass in rat at 0.3 to 3 mg/kg administered with diet relative to vehicle-control. The format is functional, organism-based.
For series [5], the species on record is Rattus norvegicus. The series can be described thus: Effect on kidney hypertrophy in Sprague-Dawley rat model of uremia-associated vascular calcification assessed as reduction in kidney to body weight ratio measured after 27 days in presence of calcitriol. Type of series: functional.
Series [6] is described as follows: Reduction in fluid overload in dietary salt-induced Sprague-Dawley rat partial ablation model of chronic kidney disease at 0.3 to 3 mg/kg administered with chow diet measured after 7 days. Type of series: functional, organism-based.
Series [7] has as its system Rattus norvegicus. The series can be described thus: Reduction in aortic phosphorus content in adenine-induced uremic Sprague-Dawley rat model at 5 mg/kg administered with chow diet. Type of series: functional, organism-based.
For series [8], the species on record is Rattus norvegicus. The series can be described thus: Reduction in stomach calcium content in Sprague-Dawley rat model of uremia-associated vascular calcification measured after 27 days in presence of calcitriol. Type of series: functional.
The species named for series [9] is Rattus norvegicus. Description: Increase in plasma albumin level in Sprague-Dawley rat model of uremia-associated vascular calcification measured after 27 days in presence of calcitriol. Type of series: functional.
Series [10] is filed under the species Rattus norvegicus. The series can be described thus: Reduction in aortic calcium content in Sprague-Dawley rat model of uremia-associated vascular calcification measured after 27 days in presence of calcitriol. Type of series: functional.
Series [11] concerns Rattus norvegicus. The series can be described thus: Anti-remodeling activity in adenine-induced uremic Sprague-Dawley rat model assessed as decrease in ratio of aortic arch weight to body weight at 2 to 5 mg/kg administered with chow diet. The format is functional, organism-based.
In series [12] the test system is Rattus norvegicus. The series can be described thus: Antihypertrophic activity in dietary salt-induced Sprague-Dawley rat partial ablation model of chronic kidney disease assessed as change in kidney morphology at 0.3 to 3 mg/kg administered with chow diet measured after 7 days. The format is functional, organism-based.
In series [13] the test system is Rattus norvegicus. The series can be described thus: Effect on urinary excretion of phosphorus in dietary salt-induced Sprague-Dawley rat partial ablation model of chronic kidney disease at 0.3 to 3 mg/kg administered with chow diet measured after 7 days. The format is functional, organism-based.
Series [14] deals with Rattus norvegicus. Description: Reduction in stomach phosphorus content in adenine-induced uremic Sprague-Dawley rat model at 5 mg/kg administered with chow diet. Type of series: functional, organism-based.
Series [15] has as its system Rattus norvegicus. The series can be described thus: Reduction in albuminuria in dietary salt-induced Sprague-Dawley rat partial ablation model of chronic kidney disease at 0.3 to 3 mg/kg administered with chow diet measured after 7 days. Type of series: functional, organism-based.
The species named for series [16] is Rattus norvegicus. Description: Effect on heart hypertrophy in Sprague-Dawley rat model of uremia-associated vascular calcification assessed as reduction in heart to body weight ratio measured after 27 days in presence of calcitriol. Type of series: functional.
For series [17], the system named is Rattus norvegicus. The series can be described thus: Reduction in urinary phosphorus mass in rat at 0.3 to 3 mg/kg administered with diet relative to vehicle-control. Type of series: functional, organism-based.
Series [18] is filed under the species Rattus norvegicus. Description: Reduction in plasma FGF23 level in Sprague-Dawley rat model of uremia-associated vascular calcification measured after 27 days in presence of calcitriol. The format is functional.
Series [19] relates to Rattus norvegicus. The series can be described thus: Reduction in stomach calcium content in adenine-induced uremic Sprague-Dawley rat model at 5 mg/kg administered with chow diet. Type of series: functional, organism-based.
The test system of series [20] is Rattus norvegicus. Description: Antihypertensive activity in dietary salt-induced Sprague-Dawley rat partial ablation model of chronic kidney disease assessed as reduction in blood pressure at 0.3 to 3 mg/kg administered with chow diet measured after 7 days. Type of series: functional, organism-based.
The species entered for series [21] is Rattus norvegicus. The series can be described thus: Reduction in plasma creatinine level in Sprague-Dawley rat model of uremia-associated vascular calcification measured after 27 days in presence of calcitriol. The format is functional.
The species entered for series [22] is Rattus norvegicus. The series can be described thus: Increase in plasma calcium level in Sprague-Dawley rat model of uremia-associated vascular calcification measured after 27 days in presence of calcitriol. The format is functional.
The test system of series [23] is Rattus norvegicus. Description: Reduction in serum phosphorus level in adenine-induced uremic Sprague-Dawley rat model at 2 to 5 mg/kg administered with chow diet. The format is functional, organism-based.
The species named for series [24] is Rattus norvegicus. The series can be described thus: Reduction in plasma phosphorus level in Sprague-Dawley rat model of uremia-associated vascular calcification measured after 27 days in presence of calcitriol. The format is functional.
The subject of series [25] is Rattus norvegicus. Description: Anti-remodeling activity in adenine-induced uremic Sprague-Dawley rat model assessed as decrease in ratio of heart weight to body weight at 2 to 5 mg/kg administered with chow diet. The format is functional, organism-based.
The subject of series [26] is Rattus norvegicus. Description: Anti-remodeling activity in adenine-induced uremic Sprague-Dawley rat model assessed as decrease in ratio of stomach weight to body weight at 2 to 5 mg/kg administered with chow diet. The format is functional, organism-based.
In series [27] the test system is Rattus norvegicus. Description: Anti-remodeling activity in adenine-induced uremic Sprague-Dawley rat model assessed as decrease in ratio of kidney weight to body weight at 2 to 5 mg/kg administered with chow diet. Type of series: functional, organism-based.
Series [28] concerns Rattus norvegicus. The series can be described thus: Antihypertrophic activity in dietary salt-induced Sprague-Dawley rat partial ablation model of chronic kidney disease assessed as change in heart morphology at 0.3 to 3 mg/kg administered with chow diet measured after 7 days. The format is functional, organism-based.
The species named for series [29] is Rattus norvegicus. Description: Increase in plasma aldosterone level in Sprague-Dawley rat model of uremia-associated vascular calcification measured after 27 days in presence of calcitriol. Type of series: functional.
Series [30] relates to Rattus norvegicus. Description: Reduction in aortic calcium content in adenine-induced uremic Sprague-Dawley rat model at 5 mg/kg administered with chow diet. Type of series: functional, organism-based.
In series [31] the test system is Rattus norvegicus. The series can be described thus: Reduction in serum creatinine level in adenine-induced uremic Sprague-Dawley rat model at 2 to 5 mg/kg administered with chow diet. Type of series: functional, organism-based.
Series [32] relates to Rattus norvegicus. Description: Effect on sodium level in urine in Sprague-Dawley rat at 2 mg/kg administered via oral gavage measured after 16 hrs by gravimetric analysis relative to vehicle-treated control. The format is functional.
In series [33] the test system is Rattus norvegicus. The series can be described thus: Effect on phosphate level in urine in Sprague-Dawley rat at 2 mg/kg administered via oral gavage measured after 16 hrs by gravimetric analysis relative to vehicle-treated control. Type of series: functional.
Series [34] concerns Rattus norvegicus. The series can be described thus: Effect on phosphate level in urine in Sprague-Dawley rat at 0.03 mg/kg administered via oral gavage measured after 16 hrs by gravimetric analysis relative to vehicle-treated control. The format is functional.
The nature of series [35]: Toxicity in Sprague-Dawley rat model of uremia-associated vascular calcification assessed as change in body weight in presence of calcitriol. The settings on record: in vivo.
Series [36] deals with Rattus norvegicus. Description: Effect on sodium level in urine in Sprague-Dawley rat at 1 mg/kg administered via oral gavage measured after 16 hrs by gravimetric analysis relative to vehicle-treated control. The format is functional.

For the molecule `CN1Cc2c(Cl)cc(Cl)cc2[C@H](c2cccc(S(=O)(=O)NCCOCCOCCNC(=O)NCCCCNC(=O)NCCOCCOCCNS(=O)(=O)c3cccc([C@@H]4CN(C)Cc5c(Cl)cc(Cl)cc54)c3)c2)C1`, the outcome (in the series listed under Rattus norvegicus [1]; in the series listed under Rattus norvegicus [2]; in the series filed under Rattus norvegicus [3]; in the series on Rattus norvegicus [4]; in the series filed under Rattus norvegicus [5]; in series [6]) was Active. In addition, the result in the series on Rattus norvegicus [7], in the series filed under Rattus norvegicus [8], in the series listed under Rattus norvegicus [9], in the series listed under Rattus norvegicus [10], in the series on Rattus norvegicus [11] and in the series on Rattus norvegicus [12] was Active. The outcome with Rattus norvegicus [13], in the series on Rattus norvegicus [14], in the series on Rattus norvegicus [15], in the series listed under Rattus norvegicus [16], in the series with Rattus norvegicus [17] and in the series listed under Rattus norvegicus [18] was Active. Besides, the outcome with Rattus norvegicus [19], in the series with Rattus norvegicus [20], in the series listed under Rattus norvegicus [21], in the series filed under Rattus norvegicus [22], with Rattus norvegicus [23] and in the series listed under Rattus norvegicus [24] was Active. In addition, the outcome in the series on Rattus norvegicus [25], in the series with Rattus norvegicus [26], in the series with Rattus norvegicus [27], in the series with Rattus norvegicus [28], in the series listed under Rattus norvegicus [29] and in the series on Rattus norvegicus [30] was Active. Moreover, the outcome with Rattus norvegicus [31] was Active.
In the case of `CN1Cc2c(Cl)cc(Cl)cc2[C@H](c2cccc(S(=O)(=O)NCCOCCOCCNC(=O)CCC(CCC(=O)NCCOCCOCCNS(=O)(=O)c3cccc([C@@H]4CN(C)Cc5c(Cl)cc(Cl)cc54)c3)(CCC(=O)NCCOCCOCCNS(=O)(=O)c3cccc([C@@H]4CN(C)Cc5c(Cl)cc(Cl)cc54)c3)NC(=O)NCP(=O)(O)O)c2)C1`, the Activity is on record as 130% in the series on Rattus norvegicus [32] and 50% in the series on Rattus norvegicus [33].
Regarding `CN1Cc2c(Cl)cc(Cl)cc2[C@H](c2cccc(S(=O)(=O)NCCOCCOCCNC(=O)NCCCCNC(=O)NCCOCCOCCNS(=O)(=O)c3cccc([C@@H]4CN(C)Cc5c(Cl)cc(Cl)cc54)c3)c2)C1` [TENAPANOR], in the series on Rattus norvegicus [34], the Activity amounted to 80%.
Regarding `CN1Cc2c(Cl)cc(Cl)cc2[C@H](c2cccc(S(=O)(=O)NCCOCCOCCNC(=O)NCCCCNC(=O)NCCOCCOCCNS(=O)(=O)c3cccc([C@@H]4CN(C)Cc5c(Cl)cc(Cl)cc54)c3)c2)C1.Cl.Cl` [TENAPANOR HYDROCHLORIDE], the Activity entry in [35] is “Non-Toxic”; with Rattus norvegicus [36], 11%.
